The record followed here is BindingDB's records for patent US11938127 (Wayne State University, 2024).

This data set addresses T1, Cytochrome P450 1A2 (Homo sapiens, UniProt P05177).
T1 sequence (P05177 whole entry): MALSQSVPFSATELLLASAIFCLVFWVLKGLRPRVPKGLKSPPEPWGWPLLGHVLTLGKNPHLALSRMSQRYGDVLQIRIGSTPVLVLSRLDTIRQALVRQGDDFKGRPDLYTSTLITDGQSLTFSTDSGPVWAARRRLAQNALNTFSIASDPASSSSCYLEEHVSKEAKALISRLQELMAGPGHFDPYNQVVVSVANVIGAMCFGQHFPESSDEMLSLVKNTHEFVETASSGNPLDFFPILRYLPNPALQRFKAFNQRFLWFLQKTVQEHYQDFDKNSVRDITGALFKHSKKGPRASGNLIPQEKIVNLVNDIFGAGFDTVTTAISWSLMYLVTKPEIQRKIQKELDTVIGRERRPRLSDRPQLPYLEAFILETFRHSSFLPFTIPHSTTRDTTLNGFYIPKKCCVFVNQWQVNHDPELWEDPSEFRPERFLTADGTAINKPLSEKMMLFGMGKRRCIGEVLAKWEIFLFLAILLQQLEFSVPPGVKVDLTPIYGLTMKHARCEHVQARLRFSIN
In words: CYP1A2 Inhibition Assay. How it is done: The quenched samples were incubated at 4° C. for 10 min and centrifuged at 4° C. for 10 min.

As to `CC(C)(C)CN1c2cccc(O)c2C(=O)CC1c1cccc(O)c1` (stereo unspecified) [US11938127, Compound KCI838], the IC50 is 2920 nM.

The term IC50 denotes the concentration that inhibits the measured activity by half. Read a high IC50 as weaker potency.
